Measured values taken from patent US10307414B2, “Pyridinyl and fused pyridinyl triazolone derivatives” (Takeda Pharmaceutical Company Limited, priority 2013, dated 2019).

Molecular target: human BTK (Homo sapiens (Human), UniProt Q06187)
Test: BTK inhibition assay: BTK-mediated phosphorylation of FAM-labeled substrate 5-FAM-[…]-NH2 (Caliper microfluidic separation)
Assay type: biochemical
Conditions: residues 382 to 659 of human BTK; 60 minutes at room temperature; pIC50 = -log(IC50), IC50 molar
Source text: The activity of compounds as BTK inhibitors may be determined by a variety of methods, including in vitro and in vivo methods.
This construct engineers an in-frame translational fusion with the Glutathione-S-Transferase (GST) protein for use in affinity purification. The fusion protein derived from this construct contains a protease recognition sequence to liberate the BTK from the GST affinity tag. […] Recombinant proteins are isolated from cellular extracts by passage over Glutathione Sepharose 4B (GE Healthcare) and the BTK moiety is released from the GST affinity tag by treatment with PreScission protease. […] The purity of the fractions is assessed by SDS PAGE and the peak protein fractions are pooled and concentrated using Amicon Ultra-15 Centrifugal Filter Devices (Millipore).
The inhibitory properties of compounds relative to BTK is determined using a black 384-well-plate format in a buffer which contains 50 mM Hepes, 10 mM NaCl, 10 mM MgCl2, 0.2 mM EDTA, 0.01% Brij35®, 1 mM DTT, and 0.1 mg/mL BSA at pH 7.3. […] To quantify the fluorescent-labeled substrate and product following reaction, the test plate is loaded on a Caliper LC-3000, which measures percent of conversion by microfluidic-based separation. […]

human BTK, sequence (Q06187 382-659): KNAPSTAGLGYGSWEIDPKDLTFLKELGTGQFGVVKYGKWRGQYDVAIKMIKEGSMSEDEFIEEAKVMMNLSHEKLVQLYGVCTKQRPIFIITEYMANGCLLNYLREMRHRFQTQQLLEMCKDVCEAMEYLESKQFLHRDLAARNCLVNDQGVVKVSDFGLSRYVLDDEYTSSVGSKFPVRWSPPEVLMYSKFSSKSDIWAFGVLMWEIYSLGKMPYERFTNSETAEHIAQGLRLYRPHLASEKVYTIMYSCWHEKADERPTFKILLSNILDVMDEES

SMILES: C=CC(=O)N1C[C@@H](C)[C@H](Oc2nc(-c3n[nH]c(=O)[nH]3)cc3ccccc23)C1 (single isomer, unassigned) [Example 19]
- BTK Inhibition (pIC50): >8.2
